Converted amounts (≈) assume the structure as drawn.
Columns and labels:
Assay type in all cases: functional
Streptococcus pneumoniae [1] = experiment: Antibacterial activity against erythromycin-susceptible Streptococcus pneumoniae ATCC 49619 by the broth microdilution method
Streptococcus pneumoniae [2] = experiment: Antibacterial activity against erythromycin-resistant Streptococcus pneumoniae B1 expressing erm gene by the broth microdilution method
Streptococcus pneumoniae [3] = experiment: Antibacterial activity against erythromycin-resistant Streptococcus pneumoniae A22072 expressing mef gene by the broth microdilution method
Streptococcus pneumoniae [4] = experiment: Antibacterial activity against erythromycin-resistant Streptococcus pneumoniae AB11 expressing erm and mef gene by the broth microdilution method
Staphylococcus aureus [5] = experiment: Antibacterial activity against erythromycin-susceptible Staphylococcus aureus ATCC 25923 by the broth microdilution method
Staphylococcus aureus [6] = experiment: Antibacterial activity against penicillin-resistant Staphylococcus aureus by the broth microdilution method
Staphylococcus aureus [7] = experiment: Antibacterial activity against […] Staphylococcus aureus ATCC 29213 by the broth microdilution method

Compound	MIC (Streptococcus pneumoniae [1]) [µg/mL]	MIC (Streptococcus pneumoniae [2]) [µg/mL]	MIC (Streptococcus pneumoniae [3]) [µg/mL]	MIC (Streptococcus pneumoniae [4]) [µg/mL]	MIC (Staphylococcus aureus [5]) [µg/mL]	MIC (Staphylococcus aureus [6]) [µg/mL]	MIC (Staphylococcus aureus [7]) [µg/mL]
CC[C@H]1OC(=O)[C@H](C)[C@@H](O[C@H]2C[C@@](C)(OC)[C@@H](OC(=O)NNC(=O)c3cc([N+](=O)[O-])cc([N+](=O)[O-])c3)[C@H](C)O2)[C@H](C)[C@@H](O[C@@H]2O[C@H](C)C[C@H](N(C)C)[C@H]2O)[C@](C)(O)C[C@@H](C)CN(C)[C@H](C)[C@H]2OC(=O)O[C@@]21C	0.5 (≈ 0.487 µM)	16 (≈ 15.6 µM)	0.25 (≈ 0.243 µM)	32 (≈ 31.2 µM)	4 (≈ 3.89 µM)	4 (≈ 3.89 µM)	4 (≈ 3.89 µM)
CC[C@H]1OC(=O)[C@H](C)[C@@H](O[C@H]2C[C@@](C)(OC)[C@@H](OC(=O)NCCNC(=O)c3ccc(OC)cc3)[C@H](C)O2)[C@H](C)[C@@H](O[C@@H]2O[C@H](C)C[C@H](N(C)C)[C@H]2O)[C@](C)(O)C[C@@H](C)CN(C)[C@H](C)[C@H]2OC(=O)O[C@@]21C	4 (≈ 4.02 µM)	32 (≈ 32.2 µM)	4 (≈ 4.02 µM)	64 (≈ 64.3 µM)	4 (≈ 4.02 µM)	4 (≈ 4.02 µM)	16 (≈ 16.1 µM)
CC[C@H]1OC(=O)[C@H](C)[C@@H](O[C@H]2C[C@@](C)(OC)[C@@H](OC(=O)NCCNC(=O)c3ccccc3OC)[C@H](C)O2)[C@H](C)[C@@H](O[C@@H]2O[C@H](C)C[C@H](N(C)C)[C@H]2O)[C@](C)(O)C[C@@H](C)CN(C)[C@H](C)[C@H]2OC(=O)O[C@@]21C	0.5 (≈ 0.502 µM)	32 (≈ 32.2 µM)	8 (≈ 8.04 µM)	64 (≈ 64.3 µM)	4 (≈ 4.02 µM)	64 (≈ 64.3 µM)	8 (≈ 8.04 µM)
CC[C@H]1OC(=O)[C@H](C)[C@@H](O[C@H]2C[C@@](C)(OC)[C@@H](OC(=O)NCCNC(=O)c3ccc(OC)c(OC)c3)[C@H](C)O2)[C@H](C)[C@@H](O[C@@H]2O[C@H](C)C[C@H](N(C)C)[C@H]2O)[C@](C)(O)C[C@@H](C)CN(C)[C@H](C)[C@H]2OC(=O)O[C@@]21C	2 (≈ 1.95 µM)	32 (≈ 31.2 µM)	4 (≈ 3.9 µM)	64 (≈ 62.4 µM)	4 (≈ 3.9 µM)	8 (≈ 7.8 µM)	32 (≈ 31.2 µM)
CC[C@H]1OC(=O)[C@H](C)[C@@H](O[C@H]2C[C@@](C)(OC)[C@@H](OC(=O)NCCNC(=O)c3ccc(C)cc3)[C@H](C)O2)[C@H](C)[C@@H](O[C@@H]2O[C@H](C)C[C@H](N(C)C)[C@H]2O)[C@](C)(O)C[C@@H](C)CN(C)[C@H](C)[C@H]2OC(=O)O[C@@]21C	1 (≈ 1.02 µM)	8 (≈ 8.17 µM)	0.25 (≈ 0.255 µM)	16 (≈ 16.3 µM)	4 (≈ 4.08 µM)	4 (≈ 4.08 µM)	16 (≈ 16.3 µM)
CC[C@H]1OC(=O)[C@H](C)[C@@H](O[C@H]2C[C@@](C)(OC)[C@@H](OC(=O)NCCNC(=O)c3ccc(F)cc3)[C@H](C)O2)[C@H](C)[C@@H](O[C@@H]2O[C@H](C)C[C@H](N(C)C)[C@H]2O)[C@](C)(O)C[C@@H](C)CN(C)[C@H](C)[C@H]2OC(=O)O[C@@]21C	1 (≈ 1.02 µM)	4 (≈ 4.07 µM)	1 (≈ 1.02 µM)	32 (≈ 32.5 µM)	16 (≈ 16.3 µM)	2 (≈ 2.03 µM)	16 (≈ 16.3 µM)
CC[C@H]1OC(=O)[C@H](C)[C@@H](O[C@H]2C[C@@](C)(OC)[C@@H](OC(=O)NCCNC(=O)c3ccc(Cl)cc3)[C@H](C)O2)[C@H](C)[C@@H](O[C@@H]2O[C@H](C)C[C@H](N(C)C)[C@H]2O)[C@](C)(O)C[C@@H](C)CN(C)[C@H](C)[C@H]2OC(=O)O[C@@]21C	0.5 (≈ 0.5 µM)	8 (≈ 8 µM)	1 (≈ 1 µM)	32 (≈ 32 µM)	4 (≈ 4 µM)	2 (≈ 2 µM)	16 (≈ 16 µM)
CC[C@H]1OC(=O)[C@H](C)[C@@H](O[C@H]2C[C@@](C)(OC)[C@@H](OC(=O)NCCNC(=O)c3ccc(Br)cc3)[C@H](C)O2)[C@H](C)[C@@H](O[C@@H]2O[C@H](C)C[C@H](N(C)C)[C@H]2O)[C@](C)(O)C[C@@H](C)CN(C)[C@H](C)[C@H]2OC(=O)O[C@@]21C	0.5 (≈ 0.479 µM)	2 (≈ 1.92 µM)	0.25 (≈ 0.239 µM)	8 (≈ 7.66 µM)	1 (≈ 0.958 µM)	2 (≈ 1.92 µM)	4 (≈ 3.83 µM)
CC[C@H]1OC(=O)[C@H](C)[C@@H](O[C@H]2C[C@@](C)(OC)[C@@H](OC(=O)NCCNC(=O)c3ccc(Cl)cc3Cl)[C@H](C)O2)[C@H](C)[C@@H](O[C@@H]2O[C@H](C)C[C@H](N(C)C)[C@H]2O)[C@](C)(O)C[C@@H](C)CN(C)[C@H](C)[C@H]2OC(=O)O[C@@]21C	0.5 (≈ 0.484 µM)	16 (≈ 15.5 µM)	2 (≈ 1.93 µM)	64 (≈ 61.9 µM)	4 (≈ 3.87 µM)	4 (≈ 3.87 µM)	8 (≈ 7.74 µM)
CC[C@H]1OC(=O)[C@H](C)[C@@H](O[C@H]2C[C@@](C)(OC)[C@@H](OC(=O)NCCNC(=O)c3ccc([N+](=O)[O-])cc3)[C@H](C)O2)[C@H](C)[C@@H](O[C@@H]2O[C@H](C)C[C@H](N(C)C)[C@H]2O)[C@](C)(O)C[C@@H](C)CN(C)[C@H](C)[C@H]2OC(=O)O[C@@]21C	0.5 (≈ 0.495 µM)	4 (≈ 3.96 µM)	0.5 (≈ 0.495 µM)	64 (≈ 63.4 µM)	4 (≈ 3.96 µM)	1 (≈ 0.99 µM)	16 (≈ 15.8 µM)
CC[C@H]1OC(=O)[C@H](C)[C@@H](O[C@H]2C[C@@](C)(OC)[C@@H](OC(=O)NCCCCNC(=O)c3ccc(OC)cc3)[C@H](C)O2)[C@H](C)[C@@H](O[C@@H]2O[C@H](C)C[C@H](N(C)C)[C@H]2O)[C@](C)(O)C[C@@H](C)CN(C)[C@H](C)[C@H]2OC(=O)O[C@@]21C	1 (≈ 0.977 µM)	4 (≈ 3.91 µM)	0.25 (≈ 0.244 µM)	16 (≈ 15.6 µM)	4 (≈ 3.91 µM)	1 (≈ 0.977 µM)	32 (≈ 31.3 µM)
CC[C@H]1OC(=O)[C@H](C)[C@@H](O[C@H]2C[C@@](C)(OC)[C@@H](OC(=O)NCCCCNC(=O)c3ccccc3OC)[C@H](C)O2)[C@H](C)[C@@H](O[C@@H]2O[C@H](C)C[C@H](N(C)C)[C@H]2O)[C@](C)(O)C[C@@H](C)CN(C)[C@H](C)[C@H]2OC(=O)O[C@@]21C	2 (≈ 1.95 µM)	4 (≈ 3.91 µM)	0.5 (≈ 0.489 µM)	16 (≈ 15.6 µM)	4 (≈ 3.91 µM)	32 (≈ 31.3 µM)	16 (≈ 15.6 µM)
CC[C@H]1OC(=O)[C@H](C)[C@@H](O[C@H]2C[C@@](C)(OC)[C@@H](OC(=O)NCCCCNC(=O)c3ccc(OC)c(OC)c3)[C@H](C)O2)[C@H](C)[C@@H](O[C@@H]2O[C@H](C)C[C@H](N(C)C)[C@H]2O)[C@](C)(O)C[C@@H](C)CN(C)[C@H](C)[C@H]2OC(=O)O[C@@]21C	2 (≈ 1.9 µM)	32 (≈ 30.4 µM)	1 (≈ 0.949 µM)	32 (≈ 30.4 µM)	8 (≈ 7.6 µM)	16 (≈ 15.2 µM)	64 (≈ 60.8 µM)
CC[C@H]1OC(=O)[C@H](C)[C@@H](O[C@H]2C[C@@](C)(OC)[C@@H](OC(=O)NCCCCNC(=O)c3ccc(C)cc3)[C@H](C)O2)[C@H](C)[C@@H](O[C@@H]2O[C@H](C)C[C@H](N(C)C)[C@H]2O)[C@](C)(O)C[C@@H](C)CN(C)[C@H](C)[C@H]2OC(=O)O[C@@]21C	0.5 (≈ 0.496 µM)	8 (≈ 7.94 µM)	1 (≈ 0.993 µM)	16 (≈ 15.9 µM)	4 (≈ 3.97 µM)	64 (≈ 63.5 µM)	32 (≈ 31.8 µM)
CC[C@H]1OC(=O)[C@H](C)[C@@H](O[C@H]2C[C@@](C)(OC)[C@@H](OC(=O)NCCCCNC(=O)c3ccc(F)cc3)[C@H](C)O2)[C@H](C)[C@@H](O[C@@H]2O[C@H](C)C[C@H](N(C)C)[C@H]2O)[C@](C)(O)C[C@@H](C)CN(C)[C@H](C)[C@H]2OC(=O)O[C@@]21C	0.5 (≈ 0.494 µM)	32 (≈ 31.6 µM)	8 (≈ 7.91 µM)	64 (≈ 63.3 µM)	8 (≈ 7.91 µM)	32 (≈ 31.6 µM)	16 (≈ 15.8 µM)
CC[C@H]1OC(=O)[C@H](C)[C@@H](O[C@H]2C[C@@](C)(OC)[C@@H](OC(=O)NCCCCNC(=O)c3ccc(Cl)cc3)[C@H](C)O2)[C@H](C)[C@@H](O[C@@H]2O[C@H](C)C[C@H](N(C)C)[C@H]2O)[C@](C)(O)C[C@@H](C)CN(C)[C@H](C)[C@H]2OC(=O)O[C@@]21C	0.5 (≈ 0.487 µM)	8 (≈ 7.78 µM)	1 (≈ 0.973 µM)	16 (≈ 15.6 µM)	4 (≈ 3.89 µM)	64 (≈ 62.3 µM)	8 (≈ 7.78 µM)
CC[C@H]1OC(=O)[C@H](C)[C@@H](O[C@H]2C[C@@](C)(OC)[C@@H](OC(=O)NCCCCNC(=O)c3ccc(Br)cc3)[C@H](C)O2)[C@H](C)[C@@H](O[C@@H]2O[C@H](C)C[C@H](N(C)C)[C@H]2O)[C@](C)(O)C[C@@H](C)CN(C)[C@H](C)[C@H]2OC(=O)O[C@@]21C	1 (≈ 0.933 µM)	8 (≈ 7.46 µM)	1 (≈ 0.933 µM)	16 (≈ 14.9 µM)	8 (≈ 7.46 µM)	32 (≈ 29.8 µM)	32 (≈ 29.8 µM)
CC[C@H]1OC(=O)[C@H](C)[C@@H](O[C@H]2C[C@@](C)(OC)[C@@H](OC(=O)NCCCCNC(=O)c3ccc(Cl)cc3Cl)[C@H](C)O2)[C@H](C)[C@@H](O[C@@H]2O[C@H](C)C[C@H](N(C)C)[C@H]2O)[C@](C)(O)C[C@@H](C)CN(C)[C@H](C)[C@H]2OC(=O)O[C@@]21C	1 (≈ 0.941 µM)	4 (≈ 3.77 µM)	1 (≈ 0.941 µM)	16 (≈ 15.1 µM)	2 (≈ 1.88 µM)	64 (≈ 60.3 µM)	16 (≈ 15.1 µM)
CC[C@H]1OC(=O)[C@H](C)[C@@H](O[C@H]2C[C@@](C)(OC)[C@@H](OC(=O)NCCCCNC(=O)c3ccc([N+](=O)[O-])cc3)[C@H](C)O2)[C@H](C)[C@@H](O[C@@H]2O[C@H](C)C[C@H](N(C)C)[C@H]2O)[C@](C)(O)C[C@@H](C)CN(C)[C@H](C)[C@H]2OC(=O)O[C@@]21C	0.12 (≈ 0.116 µM)	2 (≈ 1.93 µM)	0.5 (≈ 0.482 µM)	16 (≈ 15.4 µM)	4 (≈ 3.85 µM)	32 (≈ 30.8 µM)	4 (≈ 3.85 µM)
CC[C@H]1OC(=O)[C@H](C)[C@@H](O[C@H]2C[C@@](C)(OC)[C@@H](O)[C@H](C)O2)[C@H](C)[C@@H](O[C@@H]2O[C@H](C)C[C@H](N(C)C)[C@H]2O)[C@](C)(O)C[C@@H](C)CN(C)[C@H](C)[C@@H](O)[C@]1(C)O [AZITHROMYCIN]	0.03 (≈ 0.0401 µM)	128 (≈ 171 µM)	4 (≈ 5.34 µM)	256 (≈ 342 µM)	0.25 (≈ 0.334 µM)	0.12 (≈ 0.16 µM)	1 (≈ 1.34 µM)

Source: ChEMBL document CHEMBL1828549, “Novel C-4'' modified azithromycin analogs with remarkably enhanced activity against erythromycin-resistant Streptococcus pneumoniae: the synthesis and antimicrobial evaluation” (2011)
